According to US20210156868A1, “COMPOSITIONS AND METHODS FOR DETECTING ALBUMIN” (Tournament BioVenture LLC, priority 2019, published 2021):
“Also recorded” adds a separate entry of the source.

Key:
HSA pseudo esterase = HSA pseudo esterase (Homo sapiens, UniProt P02768); experiment: Michaelis-Menten kinetics of HSA pseudo esterase (FIG. 3); assay type: biochemical; conditions: 14:0 NPS-PC as probe
albumin = albumin (Homo sapiens, UniProt P02768); experiment: Effects of solvent and additives on pseudo-lipase activity of albumin (FIG. 13); assay type: biochemical
Chain of albumin (P02768 25-609): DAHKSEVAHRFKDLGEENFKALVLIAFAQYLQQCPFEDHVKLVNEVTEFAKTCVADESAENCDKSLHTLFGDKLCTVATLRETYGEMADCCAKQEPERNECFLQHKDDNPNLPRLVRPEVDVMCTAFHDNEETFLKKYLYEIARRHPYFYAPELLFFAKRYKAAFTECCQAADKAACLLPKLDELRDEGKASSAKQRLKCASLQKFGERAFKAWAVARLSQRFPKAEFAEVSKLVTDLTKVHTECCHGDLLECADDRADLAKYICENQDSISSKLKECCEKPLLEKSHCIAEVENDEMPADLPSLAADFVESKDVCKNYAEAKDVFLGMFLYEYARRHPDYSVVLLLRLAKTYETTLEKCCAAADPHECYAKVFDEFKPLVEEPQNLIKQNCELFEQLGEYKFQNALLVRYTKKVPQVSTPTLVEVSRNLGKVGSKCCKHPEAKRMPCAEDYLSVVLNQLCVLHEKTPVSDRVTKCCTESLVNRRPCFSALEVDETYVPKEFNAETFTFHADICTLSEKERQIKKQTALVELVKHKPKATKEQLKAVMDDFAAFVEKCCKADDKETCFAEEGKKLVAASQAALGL
Description: Dimethyl sulfoxide (DMSO), EDTA and Tween-20 had been used to determine the tolerable concentration of organic solvent.

Ca^2+ dependent PLA2 = conditions: 5 mM in the assay buffer
[1] = test system: non-albumin esterase activity (PLA2 activity in human serum, associated with LDL or HDL); experiment: Inhibition of non-albumin esterase (PLA2) activity with 14:0 NPS-PC as probe (FIG. 4); assay type: biochemical; conditions: for sensitivity of non-albumin (LDL/HDL, PLA2) esterase activity compared to pseudo esterase activity of albumin: human serum, 14:0 NPS-PC probe
Description: The reaction was started by the addition of 110 μl of TBS reaction buffer (10 mM Tris-HCl, 150 mM NaCl, pH 7.4) containing […] 14:0 NPS-PC and 5 mM EDTA to 20 μl of HSA solution in a well of a 96-well plate. The reactions were followed at wavelength 405 nm (absorbance) in a SPECTRAmax M5 plate reader.
As shown in EXAMPLE 1, using 14:0 NPS-PC as probe also identified non-albumin esterase activity, i.e. PLA2 activity in human serum, which is mainly associated with HDL and LDL. […] Pefabloc at 15-20 mM (final concentration) can eliminate all non-albumin esterase activity but maintain >90% of albumin esterase activity when assayed with 1.5 mM 14:0 NPS-PC at pH 7.4.

[2] = test system: non-HSA esterase activity associated with HDL; experiment: Inactivation of HDL-associated esterase activity on incubation with Pefabloc SC (FIG. 5); assay type: biochemical, human; conditions: 2 mM Pefabloc SC
[3] = test system: human serum non-HSA esterase activity; experiment: Inactivation of non-HSA esterase activity in mix of 20 human sera (FIG. 6, FIG. 7); assay type: biochemical; conditions: 1 mM Pefabloc SC, 24° C., hydrochloride
Description: When human serum was incubated with 1 mM Pefabloc, the non-HSA esterase activity can be abolished in about 10 minutes.

[4] = target: HSA pseudo esterase activity (Homo sapiens, UniProt P02768); conditions: 2 mM Pefabloc SC incubation; HSA 44 mg/ml in TBS, pH 7.4; hydrochloride
Chain of HSA pseudo esterase activity (P02768 25-609): as above

Solubility in water = assay type: physicochemical

Chain of HSA pseudo esterase (P02768 25-609): as above

Compound: CCCCCCCCCCCCCC(=O)OC[C@H](COP(=O)([O-])OCC[N+](C)(C)C)OC(=O)CCC(=O)Oc1ccc([N+](=O)[O-])cc1 [14:0 NPS-PC, 1-myristoyl-2-(4-nitrophenylsuccinyl)-sn-glycero-3-phosphocholine]
- Km in the pseudo esterase reaction of HSA (HSA pseudo esterase): relative low Km

Compound: C[S+](C)[O-] [DMSO, Dimethyl sulfoxide]
- effect on the assay of albumin (albumin): does not have effects

Compound: O=C(O)CN(CCN(CC(=O)O)CC(=O)O)CC(=O)O [EDTA]
- activity of Ca^2+ dependent PLA2 towards 14:0 NPS-PC (Ca^2+ dependent PLA2): suppresses

Compound: O=S(=O)(F)Cc1ccccc1 [PMSF, phenylmethylsulfonyl fluoride]
- sensitivity of non-albumin (LDL/HDL, PLA2) esterase activity compared to pseudo esterase activity of albumin [1]: much more sensitive

Compound: Cl.NCCc1ccc(S(=O)(=O)F)cc1 [Pefabloc SC, 4-(2-aminoethyl)benzenesulfonyl fluoride hydrochloride]
- sensitivity of non-albumin (LDL/HDL, PLA2) esterase activity compared to pseudo esterase activity of albumin [1]: much more sensitive
- non-albumin esterase activity ([1]; inhibitor 15-20 mM final concentration, 1.5 mM 14:0 NPS-PC, pH 7.4): eliminate all
- non-HSA esterase activity associated with HDL depleted ([2]; 6 hr of incubation, HDL 2.5 mg/ml of cholesterol): About 80%
- incubation time to complete inactivation of HDL-associated esterase activity ([2]; purified HDL): 6 to 10 h
- incubation time to complete inactivation of human serum non-HSA esterase activity [3]: about 15 min
- incubation time to complete inactivation of human serum non-HSA esterase activity ([3]; listed as Pefabloc): about 10 min
- inactivation of HSA pseudo esterase activity [4]: No inactivation; also recorded: no activity loss

Compound: CCN(CC)CCN(Cc1ccc(-c2ccc(C(F)(F)F)cc2)cc1)C(=O)Cn1c(SCc2ccc(F)cc2)nc(=O)c2c1CCC2 [darapladib]
- solubility in water (Solubility in water): insoluble in water
